Measurements from paper PMC9763329, “Targeting the transcription factor HES1 by L-menthol restores protein phosphatase 6 in keratinocytes in models of psoriasis” (Nature Communications, 2022).
pKd: −log10 of the molar value.

Legend:
[1] = target: T1, Hes1 (Mus musculus, UniProt P35428); assay: DARTS (pronase protection, anti-HES1 immunoblot); format: biochemical; settings: primary mouse keratinocyte lysate; 30 min L-menthol then 20 min pronase, room temperature
T1 construct: endogenous Hes1 in primary mouse keratinocyte lysate, detected by anti-HES1 immunoblot
T1 sequence (P35428 1-282): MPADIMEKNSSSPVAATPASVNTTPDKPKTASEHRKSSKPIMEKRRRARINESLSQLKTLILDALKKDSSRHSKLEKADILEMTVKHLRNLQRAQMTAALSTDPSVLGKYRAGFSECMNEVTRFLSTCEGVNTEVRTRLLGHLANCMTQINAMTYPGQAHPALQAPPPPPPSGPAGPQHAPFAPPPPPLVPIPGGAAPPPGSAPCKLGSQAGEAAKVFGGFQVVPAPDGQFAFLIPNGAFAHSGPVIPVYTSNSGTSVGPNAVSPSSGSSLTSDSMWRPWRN

[2] = target: T2, HES1 (transcription factor hairy and enhancer of split 1) (Homo sapiens, UniProt Q14469); assay: microscale thermophoresis (Monolith NT.[…]); format: binding
T2 construct: Human HES1 in pET-28a(+), C-terminal 6xHis tag kept, E. coli BL21(DE3), nickel and size-exclusion purified
T2 sequence (Q14469 1-280): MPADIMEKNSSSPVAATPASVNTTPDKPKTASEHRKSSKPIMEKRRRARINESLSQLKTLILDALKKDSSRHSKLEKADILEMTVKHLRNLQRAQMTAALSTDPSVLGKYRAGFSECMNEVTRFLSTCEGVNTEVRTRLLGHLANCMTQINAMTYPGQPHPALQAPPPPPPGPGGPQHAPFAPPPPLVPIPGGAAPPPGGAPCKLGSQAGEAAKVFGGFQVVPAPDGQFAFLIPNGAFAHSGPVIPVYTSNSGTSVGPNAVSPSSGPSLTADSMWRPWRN

CC(C)[C@@H]1CC[C@@H](C)C[C@H]1O [L-menthol]
DARTS (pronase protection, anti-HES1 immunoblot) [1]: interaction between HES1 and L-menthol was verified in HaCaT cells | pKd [2]: 7.77
